Experimental data reported in patent US6358885B1, “Substituted phenylheterocyclic herbicides” (Mississippi State University, priority 1992, dated 2002).

Legend:
speedwell = experiment: Test C preemergence/postemergence greenhouse plant response rating 0 to 100; type: in vivo, Veronica persica; details: for Plant response rating Speedwell: 0 to 100 scale
Excerpt: The compounds evaluated in this test were formulated in a non-phytoxic solvent and applied to the soil surface before plant seedlings emerged (preemergence application), to water that covered the soil surface (flood application), and to plants that were in the one-to-four leaf stage (postemergence application). A sandy loam soil was used for the preemergence and postemergence tests, while a silt loam soil was used in the flood test. Water depth was approximately 2.5 cm for the flood test and was maintained at this level for the duration of the test. Plant species in the preemergence and postemergence tests consisted of barley (Hordeum vulgare), bedstraw (Galium aparine), blackgrass (Alopecurus myosuroides), chickweed (Stellaria media), corn (Zea mays), cotton (Gossypium hirsutum), crabgrass (Digitaria sanguinalis), downy brome (Bromus tectorum), giant foxtail (Setaria faberii), lambsquarters (Chenopodium album), morningglory (Ipomoea hederacea), pigweed ([…]), rape (Brassica napus), ryegrass (Lolium multiflorum), sorghum (Sorghum bicolor), soybean (Glycine max), speedwell (Veronica persica), sugar beet (Beta vulgaris), velvetleaf (Abutilon theophrasti), wheat (Triticum aestivum), wild buckwheat (Polygonum convolvulus), and wild oat (Avena fatua). All plant species were planted one day before application of the compound for the preemergence portion-of this test. Plantings of these species were adjusted to produce plants of appropriate size for the post-emergence portion of the test. […] All plant species were grown using normal greenhouse practices. Visual evaluations of injury expressed on treated plants, when compared to untreated controls, were recorded approximately fourteen to twenty one days after application of the test compound. […] A dash (-) response means no test result.

alfalfa = experiment: Test G preemergence/postemergence greenhouse plant response rating 0 to 100; type: in vivo, Medicago ativa; details: 0 to 100 scale
Procedure, shortened: (§1)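 Greenhouse pots, one species each; non-phytotoxic solvent vehicle. Read-out: visual injury vs untreated, 13–21 DAT. Dash denotes no result.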

annual bluegrass = experiment: as above; type: in vivo, Poa annua; details: 0 to 100 scale
Procedure, shortened: as §1

bermudagrass = experiment: as above; type: in vivo, Cynodon dactylon; details: 0 to 100 scale
Procedure, shortened: as §1

broadleaf signalgrass = experiment: as above; type: in vivo, Brachiaria plantaginea; details: 0 to 100 scale
Procedure, shortened: as §1

common purslane = experiment: as above; type: in vivo, Portulaca oleracea; details: 0 to 100 scale
Procedure, shortened: as §1

common ragweed = experiment: as above; type: in vivo, Ambrosia elatior; details: 0 to 100 scale
Procedure, shortened: as §1

goosegrass = experiment: as above; type: in vivo, Eleusine indica; details: 0 to 100 scale
Procedure, shortened: as §1

guineagrass = experiment: as above; type: in vivo, Panicum maximum; details: 0 to 100 scale
Procedure, shortened: as §1

itchgrass = experiment: as above; type: in vivo, Rottboellia exaltata; details: 0 to 100 scale
Procedure, shortened: as §1

johnsongrass = experiment: as above; type: in vivo, Sorghum halepense; details: 0 to 100 scale
Procedure, shortened: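 Scoring: visual injury at 13 to 21 days post-application, compared with untreated controls. Planting: one species per pot in greenhouse medium. Dosing: compound in non-phytotoxic solvent, within one day of sowing for preemergence or at 2–4 leaves for postemergence.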

large crabgrass = experiment: as above; type: in vivo, Digitaria sanguinalis; details: 0 to 100 scale
Procedure, shortened: as §1

peanut = experiment: as above; type: in vivo, Arachis hypoagaea; details: 0 to 100 scale
Procedure, shortened: as §1

pitted morningglory = experiment: as above; type: in vivo, Ipomoea lacunosa; details: 0 to 100 scale
Procedure, shortened: as §1

sandbur = experiment: as above; type: in vivo, Cenchrus echinatus; details: 0 to 100 scale
Procedure, shortened: as §1

smooth crabgrass = experiment: as above; type: in vivo, Digitaria ischaemum; details: 0 to 100 scale
Procedure, shortened: as §1

yellow nutsedge = experiment: as above; type: in vivo, Cyperus esculentus; details: Rate 125 g/ha, 0 to 100 scale
Procedure, shortened: as §1

C#CCOc1cc(-c2nn3c(c2Br)CCCC3)c(F)cc1Cl [Compound 26]
Plant response rating Speedwell (speedwell; POSTEMERGENCE, 62 g/ha): 100
Plant response rating Speedwell (speedwell; POSTEMERGENCE, 250 g/ha): 100
Plant response rating (0 to 100), Speedwell (speedwell; POSTEMERGENCE, Rate 4 g/ha): 90
Plant response rating Speedwell (speedwell; PREEMERGENCE, 250 g/ha): 100
Plant response rating (0 to 100), Speedwell (speedwell; PREEMERGENCE, Rate 4 g/ha): 90
Plant response rating (0 to 100), Speedwell (speedwell; Rate 16 g/ha, POSTEMERGENCE): 100
Plant response rating (0 to 100), Speedwell (speedwell; Rate 16 g/ha, PREEMERGENCE): 100
Plant response rating, Alfalfa Var. (alfalfa; POSTEMERGENCE, Rate 125 g/ha): 20
Plant response rating, Alfalfa Var. (alfalfa; POSTEMERGENCE, Rate 250 g/ha): 50
Plant response rating, Alfalfa Var. (alfalfa; PREEMERGENCE, Rate 125 g/ha): 0
Plant response rating, Alfalfa Var. (alfalfa; PREEMERGENCE, Rate 250 g/ha): 60
Plant response rating, Ann Bluegrass (annual bluegrass; POSTEMERGENCE, Rate 125 g/ha): 0
Plant response rating, Ann Bluegrass (annual bluegrass; POSTEMERGENCE, Rate 250 g/ha): 0
Plant response rating, Ann Bluegrass (annual bluegrass; PREEMERGENCE, Rate 125 g/ha): 0
Plant response rating, Ann Bluegrass (annual bluegrass; PREEMERGENCE, Rate 250 g/ha): 0
Plant response rating, Bermudagrass (bermudagrass; POSTEMERGENCE, Rate 125 g/ha): 0
Plant response rating, Bermudagrass (bermudagrass; POSTEMERGENCE, Rate 250 g/ha): 0
Plant response rating, Bermudagrass (bermudagrass; PREEMERGENCE, Rate 125 g/ha): 0
Plant response rating, Bermudagrass (bermudagrass; PREEMERGENCE, Rate 250 g/ha): 0
Plant response rating, Brdlf Sgnlgrass (broadleaf signalgrass; POSTEMERGENCE, Rate 125 g/ha): 0
Plant response rating, Brdlf Sgnlgrass (broadleaf signalgrass; POSTEMERGENCE, Rate 250 g/ha): 0
Plant response rating, Brdlf Sgnlgrass (broadleaf signalgrass; PREEMERGENCE, Rate 125 g/ha): 0
Plant response rating, Brdlf Sgnlgrass (broadleaf signalgrass; PREEMERGENCE, Rate 250 g/ha): 0
Plant response rating, Cmn Purslane (common purslane; POSTEMERGENCE, Rate 125 g/ha): 100
Plant response rating, Cmn Purslane (common purslane; POSTEMERGENCE, Rate 250 g/ha): 90
Plant response rating, Cmn Purslane (common purslane; PREEMERGENCE, Rate 125 g/ha): 30
Plant response rating, Cmn Purslane (common purslane; PREEMERGENCE, Rate 250 g/ha): 100
Plant response rating, Cmn Ragweed (common ragweed; POSTEMERGENCE, Rate 125 g/ha): 80
Plant response rating, Cmn Ragweed (common ragweed; POSTEMERGENCE, Rate 250 g/ha): 100
Plant response rating, Cmn Ragweed (common ragweed; PREEMERGENCE, Rate 125 g/ha): 0
Plant response rating, Cmn Ragweed (common ragweed; PREEMERGENCE, Rate 250 g/ha): 20
Plant response rating, Goosegrass (goosegrass; POSTEMERGENCE, Rate 125 g/ha): 0
Plant response rating, Goosegrass (goosegrass; POSTEMERGENCE, Rate 250 g/ha): 0
Plant response rating, Goosegrass (goosegrass; PREEMERGENCE, Rate 125 g/ha): 70
Plant response rating, Goosegrass (goosegrass; PREEMERGENCE, Rate 250 g/ha): 20
Plant response rating, Guineagrass (guineagrass; POSTEMERGENCE, Rate 125 g/ha): 0
Plant response rating, Guineagrass (guineagrass; POSTEMERGENCE, Rate 250 g/ha): 0
Plant response rating, Guineagrass (guineagrass; PREEMERGENCE, Rate 125 g/ha): 0
Plant response rating, Guineagrass (guineagrass; PREEMERGENCE, Rate 250 g/ha): 30
Plant response rating, Itchgrass (itchgrass; POSTEMERGENCE, Rate 125 g/ha): 0
Plant response rating, Itchgrass (itchgrass; POSTEMERGENCE, Rate 250 g/ha): 0
Plant response rating, Itchgrass (itchgrass; PREEMERGENCE, Rate 125 g/ha): 0
Plant response rating, Itchgrass (itchgrass; PREEMERGENCE, Rate 250 g/ha): 50
Plant response rating, Johnsongrass (johnsongrass; POSTEMERGENCE, Rate 125 g/ha): 0
Plant response rating, Johnsongrass (johnsongrass; POSTEMERGENCE, Rate 250 g/ha): 0
Plant response rating, Johnsongrass (johnsongrass; PREEMERGENCE, Rate 125 g/ha): 0
Plant response rating, Johnsongrass (johnsongrass; PREEMERGENCE, Rate 250 g/ha): 0
Plant response rating, Large Crabgrass (large crabgrass; POSTEMERGENCE, Rate 125 g/ha): 0
Plant response rating, Large Crabgrass (large crabgrass; POSTEMERGENCE, Rate 250 g/ha): 0
Plant response rating, Large Crabgrass (large crabgrass; PREEMERGENCE, Rate 125 g/ha): 90
Plant response rating, Large Crabgrass (large crabgrass; PREEMERGENCE, Rate 250 g/ha): 90
Plant response rating, Peanuts (peanut; POSTEMERGENCE, Rate 125 g/ha): 0
Plant response rating, Peanuts (peanut; POSTEMERGENCE, Rate 250 g/ha): 0
Plant response rating, Peanuts (peanut; PREEMERGENCE, Rate 250 g/ha): 0
Plant response rating, Pit Morninglory (pitted morningglory; POSTEMERGENCE, Rate 125 g/ha): 0
Plant response rating, Pit Morninglory (pitted morningglory; POSTEMERGENCE, Rate 250 g/ha): 40
Plant response rating, Pit Morninglory (pitted morningglory; PREEMERGENCE, Rate 125 g/ha): 0
Plant response rating, Pit Morninglory (pitted morningglory; PREEMERGENCE, Rate 250 g/ha): 20
Plant response rating, S. Sandbur (sandbur; POSTEMERGENCE, Rate 125 g/ha): 0
Plant response rating, S. Sandbur (sandbur; POSTEMERGENCE, Rate 250 g/ha): 0
Plant response rating, S. Sandbur (sandbur; PREEMERGENCE, Rate 125 g/ha): 0
Plant response rating, S. Sandbur (sandbur; PREEMERGENCE, Rate 250 g/ha): 0
Plant response rating, Smooth Crabgras (smooth crabgrass; POSTEMERGENCE, Rate 125 g/ha): 0
Plant response rating, Smooth Crabgras (smooth crabgrass; POSTEMERGENCE, Rate 250 g/ha): 0
Plant response rating, Smooth Crabgras (smooth crabgrass; PREEMERGENCE, Rate 125 g/ha): 0
Plant response rating, Smooth Crabgras (smooth crabgrass; PREEMERGENCE, Rate 250 g/ha): 40
Plant response rating, Yellow Nutsedge (yellow nutsedge; POSTEMERGENCE): 0
Plant response rating, Yellow Nutsedge (yellow nutsedge; PREEMERGENCE): 0
